{"source": "patent US20260256792A1", "about": "“TREATMENT OF CHRONIC SPONTANEOUS URTICARIA BY ADMINISTERING (R)-2-[3-[4-AMINO-3-(2-FLUORO-4-PHENOXY-PHENYL)PYRAZOLO[3,4-D]PYRIMIDIN-1-YL]PIPERIDINE-1-CARBONYL]-4-METHYL-4-[4-(OXETAN-3-YL)PIPERAZIN-1-YL]PENT-2-ENENITRILE” (priority 2023, published 2026)", "test_system": "moderate-to-severe chronic spontaneous urticaria (CSU)", "experiment": "Phase 2 CSU study: urticaria activity score over 7 days (UAS7)", "type": "in vivo, human", "conditions": "for Change from Baseline in UAS7 at Week 12: Mean (SD) / Change from Baseline in UAS7 at Week 12: LS Mean Diff vs. placebo (95% CI) / Change from Baseline in UAS7 at Week 12: LS Mean (SE): Omalizumab-Naïve; for Imputed non-responder n (%), UAS7 = 0 / Imputed non-responder n (%), UAS7 ≤6 / Non-responder n (%), UAS7 = 0 / Non-responder n (%), UAS7 ≤6 / OR for rilzabrutinib vs. placebo, UAS7 = 0 / OR for rilzabrutinib vs. placebo, UAS7 ≤6 / RRD (%) for rilzabrutinib vs. placebo, UAS7 = 0 / RRD (%) for rilzabrutinib vs. placebo, UAS7 ≤6 / Responder n (%), UAS7 = 0 / Responder n (%), UAS7 ≤6: Omalizumab-naïve", "source_text": "The study comprises a 12 week, randomized, double-blind, placebo-controlled, multi-center, dose-ranging efficacy and safety phase, followed by a 40 week open label extension (OLE) phase (see FIG. 1). The study consists of three phases and an optional OLE phase. […] Clinically, CSU is characterized by the spontaneous and recurrent appearance of pruritic hives. The proposed primary endpoints were the UAS7 at Week 12 in EU and EU reference countries and the ISS7 in the US. Regardless of where a participant was from, all assessments were the same. The UAS7 score is a composite score containing both the HSS7 and the ISS7. This allowed a global assessment of the two key components of urticaria: hives and itch. […] The UAS is a validated PRO measure. […] The daily UAS scores range from 0 to 6 point/day. […] Patients were to complete the UAS using the e-diary. […] The following secondary endpoints were to be analyzed using the same approach as for the primary endpoint: • Change from baseline in UAS7 at Week 4 • Change from baseline in UAS7 at Week 12 (for US and US reference countries) • Change from baseline in ISS7 at Week 12 (except US and US reference countries) • Change from baseline in HSS7 at Week 12 The following responder secondary endpoints were to be analyzed using the Cochran-Mantel-Haenszel test adjusted by region: • Proportion of participants with UAS7<6 at Week 12 • Proportion of participants with UAS7=0 at Week 12 Participants who received selected prohibited medications and/or rescue medications were to be considered as non-responders for time points after the medication usage. For other participants, all available data including those collected during the off-treatment period were to be used to determine the responder/non-responder status. Missing data were to be considered as non-responders.", "key": {"[1]": {"conditions": "Region Latin America, 400 mg TID"}, "[2]": {"conditions": "Region Western Countries, 400 mg BID"}, "[3]": {"conditions": "Region Western Countries, 400 mg QPM"}, "[4]": {"conditions": "Region Western Countries, 400 mg TID"}}}
{"compound": "CC(C)(C=C(C#N)C(=O)N1CCC[C@@H](n2nc(-c3ccc(Oc4ccccc4)cc3F)c3c(N)ncnc32)C1)N1CCN(C2COC2)CC1", "note": "[rilzabrutinib, (R)-2-[3-[4-amino-3-(2-fluoro-4-phenoxy-phenyl)pyrazolo[3,4-d]pyrimidin-1-yl]piperidine-1-carbonyl]-4-methyl-4-[4-(oxetan-3-yl)piperazin-1-yl]pent-2-enenitrile]", "values": [{"measurement": "Change from Baseline in UAS7 at Week 12: Mean (SD)", "setting": "Region Latin America, 400 mg QPM", "result": "−13.28 (10.78)"}, {"measurement": "Change from Baseline in UAS7 at Week 12: LS Mean Diff vs. placebo (95% CI)", "setting": "[1]", "result": "0.38 (−10.12, 10.88)"}, {"measurement": "Change from Baseline in UAS7 at Week 12: Mean (SD)", "setting": "[1]", "result": "−14.07 (12.07)"}, {"measurement": "Change from Baseline in UAS7 at Week 12: LS Mean (SE)", "setting": "[2]", "result": "−20.19 (3.23)"}, {"measurement": "Change from Baseline in UAS7 at Week 12: LS Mean Diff vs. placebo (95% CI)", "setting": "[2]", "result": "−12.21 (−21.37, −3.06)"}, {"measurement": "Change from Baseline in UAS7 at Week 12: Mean (SD)", "setting": "[2]", "result": "−20.62 (10.65)"}, {"measurement": "Change from Baseline in UAS7 at Week 12: LS Mean (SE)", "setting": "[3]", "result": "−8.74 (4.03)"}, {"measurement": "Change from Baseline in UAS7 at Week 12: Mean (SD)", "setting": "[3]", "result": "−10.70 (8.61)"}, {"measurement": "Change from Baseline in UAS7 at Week 12: LS Mean (SE)", "setting": "[4]", "result": "−19.49 (3.03)"}, {"measurement": "Change from Baseline in UAS7 at Week 12: Mean (SD)", "setting": "[4]", "result": "−23.13 (10.61)"}, {"measurement": "Imputed non-responder n (%), UAS7 = 0", "setting": "400 mg BID, Week 1", "result": "0 n (%)"}, {"measurement": "Imputed non-responder n (%), UAS7 ≤6", "setting": "400 mg BID, Week 1", "result": "0 n (%)"}, {"measurement": "Non-responder n (%), UAS7 = 0", "setting": "400 mg BID, Week 1", "result": "32 (91.4) n (%)"}, {"measurement": "Non-responder n (%), UAS7 ≤6", "setting": "400 mg BID, Week 1", "result": "29 (82.9) n (%)"}, {"measurement": "OR for rilzabrutinib vs. placebo, UAS7 = 0", "setting": "400 mg BID, Week 1", "result": 3.242}, {"measurement": "OR for rilzabrutinib vs. placebo, UAS7 ≤6", "setting": "400 mg BID, Week 1", "result": 3.183}, {"measurement": "RRD (%) for rilzabrutinib vs. placebo, UAS7 = 0", "setting": "400 mg BID, Week 1", "result": 5.6, "unit": "%"}, {"measurement": "RRD (%) for rilzabrutinib vs. placebo, UAS7 ≤6", "setting": "400 mg BID, Week 1", "result": 9.9, "unit": "%"}, {"measurement": "Responder n (%), UAS7 = 0", "setting": "400 mg BID, Week 1", "result": "3 (8.6) n (%)"}, {"measurement": "Responder n (%), UAS7 ≤6", "setting": "400 mg BID, Week 1", "result": "6 (17.1) n (%)"}, {"measurement": "Imputed non-responder n (%), UAS7 = 0", "setting": "400 mg BID, Week 2", "result": "1 (2.9) n (%)"}, {"measurement": "Imputed non-responder n (%), UAS7 ≤6", "setting": "400 mg BID, Week 2", "result": "1 (2.9) n (%)"}, {"measurement": "Non-responder n (%), UAS7 = 0", "setting": "400 mg BID, Week 2", "result": "33 (94.3) n (%)"}, {"measurement": "Non-responder n (%), UAS7 ≤6", "setting": "400 mg BID, Week 2", "result": "31 (88.6) n (%)"}, {"measurement": "OR for rilzabrutinib vs. placebo, UAS7 = 0", "setting": "400 mg BID, Week 2", "result": 2.024}, {"measurement": "OR for rilzabrutinib vs. placebo, UAS7 ≤6", "setting": "400 mg BID, Week 2", "result": 1.917}, {"measurement": "RRD (%) for rilzabrutinib vs. placebo, UAS7 = 0", "setting": "400 mg BID, Week 2", "result": 2.5, "unit": "%"}, {"measurement": "RRD (%) for rilzabrutinib vs. placebo, UAS7 ≤6", "setting": "400 mg BID, Week 2", "result": 4.4, "unit": "%"}, {"measurement": "Responder n (%), UAS7 = 0", "setting": "400 mg BID, Week 2", "result": "2 (5.7) n (%)"}, {"measurement": "Responder n (%), UAS7 ≤6", "setting": "400 mg BID, Week 2", "result": "4 (11.4) n (%)"}, {"measurement": "Imputed non-responder n (%), UAS7 = 0", "setting": "400 mg BID, Week 3", "result": "0 n (%)"}, {"measurement": "Imputed non-responder n (%), UAS7 ≤6", "setting": "400 mg BID, Week 3", "result": "0 n (%)"}, {"measurement": "Non-responder n (%), UAS7 = 0", "setting": "400 mg BID, Week 3", "result": "32 (91.4) n (%)"}, {"measurement": "Non-responder n (%), UAS7 ≤6", "setting": "400 mg BID, Week 3", "result": "27 (77.1) n (%)"}, {"measurement": "OR for rilzabrutinib vs. placebo, UAS7 = 0", "setting": "400 mg BID, Week 3", "result": 3.036}, {"measurement": "OR for rilzabrutinib vs. placebo, UAS7 ≤6", "setting": "400 mg BID, Week 3", "result": 2.894}, {"measurement": "RRD (%) for rilzabrutinib vs. placebo, UAS7 = 0", "setting": "400 mg BID, Week 3", "result": 5.0, "unit": "%"}, {"measurement": "RRD (%) for rilzabrutinib vs. placebo, UAS7 ≤6", "setting": "400 mg BID, Week 3", "result": 13.3, "unit": "%"}, {"measurement": "Responder n (%), UAS7 = 0", "setting": "400 mg BID, Week 3", "result": "3 (8.6) n (%)"}, {"measurement": "Responder n (%), UAS7 ≤6", "setting": "400 mg BID, Week 3", "result": "8 (22.9) n (%)"}, {"measurement": "Imputed non-responder n (%), UAS7 = 0", "setting": "400 mg BID, Week 4", "result": "2 (5.7) n (%)"}, {"measurement": "Imputed non-responder n (%), UAS7 ≤6", "setting": "400 mg BID, Week 4", "result": "2 (5.7) n (%)"}, {"measurement": "Non-responder n (%), UAS7 = 0", "setting": "400 mg BID, Week 4", "result": "32 (91.4) n (%)"}, {"measurement": "Non-responder n (%), UAS7 ≤6", "setting": "400 mg BID, Week 4", "result": "25 (71.4) n (%)"}, {"measurement": "OR for rilzabrutinib vs. placebo, UAS7 = 0", "setting": "400 mg BID, Week 4", "result": 1.372}, {"measurement": "OR for rilzabrutinib vs. placebo, UAS7 ≤6", "setting": "400 mg BID, Week 4", "result": 2.950}, {"measurement": "RRD (%) for rilzabrutinib vs. placebo, UAS7 = 0", "setting": "400 mg BID, Week 4", "result": 1.9, "unit": "%"}, {"measurement": "RRD (%) for rilzabrutinib vs. placebo, UAS7 ≤6", "setting": "400 mg BID, Week 4", "result": 15.8, "unit": "%"}, {"measurement": "Responder n (%), UAS7 = 0", "setting": "400 mg BID, Week 4", "result": "3 (8.6) n (%)"}, {"measurement": "Responder n (%), UAS7 ≤6", "setting": "400 mg BID, Week 4", "result": "10 (28.6) n (%)"}, {"measurement": "Imputed non-responder n (%), UAS7 = 0", "setting": "400 mg BID, Week 5", "result": "2 (5.7) n (%)"}, {"measurement": "Imputed non-responder n (%), UAS7 ≤6", "setting": "400 mg BID, Week 5", "result": "2 (5.7) n (%)"}, {"measurement": "Non-responder n (%), UAS7 = 0", "setting": "400 mg BID, Week 5", "result": "31 (88.6) n (%)"}, {"measurement": "Non-responder n (%), UAS7 ≤6", "setting": "400 mg BID, Week 5", "result": "25 (71.4) n (%)"}, {"measurement": "OR for rilzabrutinib vs. placebo, UAS7 = 0", "setting": "400 mg BID, Week 5", "result": 4.254}, {"measurement": "OR for rilzabrutinib vs. placebo, UAS7 ≤6", "setting": "400 mg BID, Week 5", "result": 6.525}, {"measurement": "RRD (%) for rilzabrutinib vs. placebo, UAS7 = 0", "setting": "400 mg BID, Week 5", "result": 8.1, "unit": "%"}, {"measurement": "RRD (%) for rilzabrutinib vs. placebo, UAS7 ≤6", "setting": "400 mg BID, Week 5", "result": 21.1, "unit": "%"}, {"measurement": "Responder n (%), UAS7 = 0", "setting": "400 mg BID, Week 5", "result": "4 (11.4) n (%)"}, {"measurement": "Responder n (%), UAS7 ≤6", "setting": "400 mg BID, Week 5", "result": "10 (28.6) n (%)"}, {"measurement": "Imputed non-responder n (%), UAS7 = 0", "setting": "400 mg BID, Week 6", "result": "2 (5.7) n (%)"}, {"measurement": "Imputed non-responder n (%), UAS7 ≤6", "setting": "400 mg BID, Week 6", "result": "2 (5.7) n (%)"}, {"measurement": "Non-responder n (%), UAS7 = 0", "setting": "400 mg BID, Week 6", "result": "31 (88.6) n (%)"}, {"measurement": "Non-responder n (%), UAS7 ≤6", "setting": "400 mg BID, Week 6", "result": "26 (74.3) n (%)"}, {"measurement": "OR for rilzabrutinib vs. placebo, UAS7 = 0", "setting": "400 mg BID, Week 6", "result": 4.048}, {"measurement": "OR for rilzabrutinib vs. placebo, UAS7 ≤6", "setting": "400 mg BID, Week 6", "result": 1.743}]}
